Values quoted from earlier work in patent US12453729B2, “Pharmaceutical formulations” (AstraZeneca AB, priority 2020, dated 2025).

Key:
[1] = molecular target: T1, ERα receptor (Homo sapiens, UniProt P03372); settings: patient samples; 500 mg monthly dose
T1 sequence (P03372 1-595): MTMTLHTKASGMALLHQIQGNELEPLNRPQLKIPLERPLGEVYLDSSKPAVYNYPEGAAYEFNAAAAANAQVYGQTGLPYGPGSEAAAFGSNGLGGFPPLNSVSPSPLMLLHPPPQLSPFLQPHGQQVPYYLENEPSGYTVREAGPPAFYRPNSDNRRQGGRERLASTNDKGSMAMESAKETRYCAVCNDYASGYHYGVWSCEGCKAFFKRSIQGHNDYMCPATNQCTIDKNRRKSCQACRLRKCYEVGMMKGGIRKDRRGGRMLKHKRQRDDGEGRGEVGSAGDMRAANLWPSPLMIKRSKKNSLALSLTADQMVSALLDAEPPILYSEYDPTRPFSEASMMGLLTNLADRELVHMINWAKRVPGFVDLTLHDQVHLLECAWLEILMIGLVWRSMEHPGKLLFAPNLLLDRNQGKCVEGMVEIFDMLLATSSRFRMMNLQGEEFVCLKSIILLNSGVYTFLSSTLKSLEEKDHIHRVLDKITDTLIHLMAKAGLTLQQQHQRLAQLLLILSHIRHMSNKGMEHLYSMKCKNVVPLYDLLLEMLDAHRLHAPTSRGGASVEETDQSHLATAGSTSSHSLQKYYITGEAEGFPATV

[2] = molecular target: T1, ERα receptor; settings: in vitro breast cancer cell line experiments

- turnover of the receptor [1]: less than 50%
- down-regulation of the receptor [2]: complete down-regulation
SMILES: C[C@]12CC[C@@H]3c4ccc(O)cc4C[C@@H](CCCCCCCCC[S+]([O-])CCCC(F)(F)C(F)(F)F)[C@H]3[C@@H]1CC[C@@H]2O (some centres unmarked) [Fulvestrant]
